Reference: EP0527889B1, “QUINOLIZINONE TYPE COMPOUNDS” (priority 1990, dated 1991)
Values after ≈ are worked out from the molar mass of the structure shown. Structures can show the parent of a compound that is named as a salt.

Columns and labels:
[1] = test system: Acinetobacter calcoaceticus CMX 669; assay: In vitro antibacterial activity, MIC by agar dilution; assay type: cell-based; conditions: BHI agar, 35-37°C, 20-24 hours, unit assumed
In short: (§1)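 Agar dilution; ~10^4 CFU/spot by replicator (1:100 dilution, 1:10 for slow growers); 35–37°C, ~20–24 h. MIC = lowest conc. with no growth (slight haze or sparse colonies allowed) vs drug-free BHI control; ciprofloxacin control.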

[2] = test system: Enterobacter aerogenes ATCC 13048; assay: as above; assay type: cell-based; conditions: BHI agar, 35-37°C, 20-24 hours, unit assumed
In short: as §1

[3] = test system: Enterococcus faecium ATCC 8043; assay: as above; assay type: cell-based; conditions: BHI agar, 35-37°C, 20-24 hours, unit assumed
In short: as §1

Escherichia coli DC-2 = assay: as above; assay type: cell-based; conditions: BHI agar, 35-37°C, 20-24 hours, unit assumed
In short: as §1

Escherichia coli H560 = assay: as above; assay type: cell-based; conditions: BHI agar, 35-37°C, 20-24 hours, unit assumed
In short: as §1

Escherichia coli JUHL [4] = assay: as above; assay type: cell-based; conditions: BHI agar, 35-37°C, 20-24 hours, unit assumed
In short: as §1

Escherichia coli KNK 437 = assay: as above; assay type: cell-based; conditions: BHI agar, 35-37°C, 20-24 hours, unit assumed
In short: as §1

Escherichia coli SS = assay: as above; assay type: cell-based; conditions: BHI agar, 35-37°C, 20-24 hours, unit assumed
In short: as §1

[5] = test system: Klebsiella pneumoniae ATCC 8045; assay: as above; assay type: cell-based; conditions: BHI agar, 35-37°C, 20-24 hours, unit assumed
In short: as §1

[6] = test system: Micrococcus luteus ATCC 4698; assay: as above; assay type: cell-based; conditions: BHI agar, 35-37°C, 20-24 hours, unit assumed
In short: as §1

[7] = test system: Micrococcus luteus ATCC 9341; assay: as above; assay type: cell-based; conditions: BHI agar, 35-37°C, 20-24 hours, unit assumed
In short: as §1

[8] = test system: Providencia stuartii CMX 640; assay: as above; assay type: cell-based; conditions: BHI agar, 35-37°C, 20-24 hours, unit assumed
In short: as §1

[9] = test system: Pseudomonas aeruginosa 2862; assay: as above; assay type: cell-based; conditions: BHI agar, 35-37°C, 20-24 hours, unit assumed
In short: as §1

[10] = test system: Pseudomonas aeruginosa 5263; assay: as above; assay type: cell-based; conditions: BHI agar, 35-37°C, 20-24 hours, unit assumed
In short: as §1

[11] = test system: Pseudomonas aeruginosa A5007; assay: as above; assay type: cell-based; conditions: BHI agar, 35-37°C, 20-24 hours, unit assumed
In short: as §1

[12] = test system: Pseudomonas aeruginosa BMH10; assay: as above; assay type: cell-based; conditions: BHI agar, 35-37°C, 20-24 hours, unit assumed
In short: as §1

[13] = test system: Pseudomonas aeruginosa K799/61; assay: as above; assay type: cell-based; conditions: BHI agar, 35-37°C, 20-24 hours, unit assumed
In short: as §1

[14] = test system: Pseudomonas aeruginosa K799/WT; assay: as above; assay type: cell-based; conditions: BHI agar, 35-37°C, 20-24 hours, unit assumed
In short: as §1

Pseudomonas cepacia 296I = assay: as above; assay type: cell-based; conditions: BHI agar, 35-37°C, 20-24 hours, unit assumed
In short: as §1

[15] = test system: Staphylococcus aureus 1775; assay: as above; assay type: cell-based; conditions: BHI agar, 35-37°C, 20-24 hours, unit assumed
In short: as §1

[16] = test system: Staphylococcus aureus 642A; assay: as above; assay type: cell-based; conditions: BHI agar, 35-37°C, 20-24 hours, unit assumed
In short: as §1

[17] = test system: Staphylococcus aureus A-5278; assay: as above; assay type: cell-based; conditions: BHI agar, 35-37°C, 20-24 hours, unit assumed
In short: as §1

[18] = test system: Staphylococcus aureus A5177; assay: as above; assay type: cell-based; conditions: BHI agar, 35-37°C, 20-24 hours, unit assumed
In short: as §1

[19] = test system: Staphylococcus aureus ATCC 6538P; assay: as above; assay type: cell-based; conditions: BHI agar, 35-37°C, 20-24 hours, unit assumed
In short: as §1

[20] = test system: Staphylococcus aureus CMX 553; assay: as above; assay type: cell-based; conditions: BHI agar, 35-37°C, 20-24 hours, unit assumed
In short: as §1

[21] = test system: Staphylococcus aureus NCTC 10649; assay: as above; assay type: cell-based; conditions: BHI agar, 35-37°C, 20-24 hours, unit assumed
In short: as §1

[22] = test system: Staphylococcus epidermidis 3519; assay: as above; assay type: cell-based; conditions: BHI agar, 35-37°C, 20-24 hours, unit assumed
In short: as §1

[23] = test system: Streptococcus agalactaciae CMX 508; assay: as above; assay type: cell-based; conditions: BHI agar, 35-37°C, 20-24 hours, unit assumed
In short: as §1

[24] = test system: Streptococcus bovis A5169; assay: as above; assay type: cell-based; conditions: BHI agar, 35-37°C, 20-24 hours, unit assumed
In short: as §1

[25] = test system: Streptococcus pyrogenes 2548 INDUC; assay: as above; assay type: cell-based; conditions: BHI agar, 35-37°C, 20-24 hours, unit assumed
In short: as §1

[26] = test system: Streptococcus pyrogenes CONST; assay: as above; assay type: cell-based; conditions: BHI agar, 35-37°C, 20-24 hours, unit assumed
In short: as §1

[27] = test system: Streptococcus pyrogenes EES61; assay: as above; assay type: cell-based; conditions: BHI agar, 35-37°C, 20-24 hours, unit assumed
In short: as §1

[28] = test system: Staphylococcus aureus NCTC 10649; assay: In vivo antibacterial activity in mice (protection from lethal intraperitoneal infection); conditions: NCTC10649, 144 h, S. aureus, CF-1 female mice infected intraperitoneally with 100 times the LD50, treated at 1 and 5 hr after infection, cumulative mortalities on the sixth day
Experimental: (§2) The in vivo antibacterial activity of the compounds of the present invention was determined as follows: Aqueous solutions of the test compounds were prepared by dissolving the compound in distilled water, except for the compounds of examples 169 and 170 which were dissolved in a solution of 2% DMSO in distilled water.
(§3) After 18 hr incubation, a culture of Staphylococcus aureus NCTC 10649 was serially diluted by using 10-fold dilutions in 5% (w/v) hog gastric mucin. Cultures (0.5 mL) in a dilution from 10^-1 to 10^-8 were injected intraperitoneally into CF-1 female mice weighing approximately 20g. The LD50 (median lethal dose) for the test organism was calculated from the cumulative mortalities on the sixth day by the using the Reed and Muench procedure (Reed, L.J., and H. Muench, Amer. J. Hygiene, 27, 493 (1938)).
(§4) The above 18 hr culture was diluted in 5% (w/v) hog gastric mucin to obtain 100 times the LD50, and 0.5 mL was injected intraperitoneally into mice. The mice were treated subcutaneously (sc) or orally (po) with a specific amount of the test compound divided equally to be administered at 1 and 5 hr after infection. A group of 10 animals each for at least three dose levels was thus treated, and the deaths were recorded daily for 6 days. Ten mice were left untreated as infection control. ED50 values were calculated from the cumulative mortalities on the sixth day after infection by using the trimmed version of the Logit method ( Hamilton, M.A., R.C. Russo, and R.V. Thurston, Environ. Sci. Technol. 11, 714 (1977)).

Escherichia coli JUHL [29] = assay: as above; conditions: 144 h, E. coli JUHL, mice infected intraperitoneally, treated at 1 and 5 hr after infection, cumulative mortalities on the sixth day
Experimental: as §2, §3, §4
The LD50 for Escherichia coli JUHL was determined in a manner similar to that above for S. aureus. The 18 hr cultures of this organism were also prepared for po and sc testing in mice, from which ED50 values were calculated. Positive controls were run with temafloxacin as the test compound, for which ED50 values were also calculated.

SMILES	MIC values [1] [µg/mL]	MIC values [2] [µg/mL]	MIC values [3] [µg/mL]	MIC values (Escherichia coli DC-2) [µg/mL]	MIC values (Escherichia coli H560) [µg/mL]	MIC values (Escherichia coli JUHL [4]) [µg/mL]	MIC values (Escherichia coli KNK 437) [µg/mL]	MIC values (Escherichia coli SS) [µg/mL]	MIC values [5] [µg/mL]	MIC values [6] [µg/mL]	MIC values [7] [µg/mL]	MIC values [8] [µg/mL]	MIC values [9] [µg/mL]	MIC values [10] [µg/mL]	MIC values [11] [µg/mL]	MIC values [12] [µg/mL]	MIC values [13] [µg/mL]	MIC values [14] [µg/mL]	MIC values (Pseudomonas cepacia 296I) [µg/mL]	MIC values [15] [µg/mL]	other results
C[C@H](N)C(=O)NC1CCN(c2nc3c(-c4ccc(F)cc4F)cc(C(=O)O)c(=O)n3cc2F)C1 (stereo partly drawn) [Example 167, 2-(3-(N-(S)-Alanyl)aminopyrrolidin-1-yl)-9-(2,4-difluorophenyl)-3-fluoro-6H-6-oxopyrido[1,2-a]pyrimidine-7-carboxylic acid hydrochloride]	12.5	3.1	12.5	25	1.56	1.56	25	0.05	3.1	50	50	100	> 100	> 100	6.2	12.5	1.56	6.2	100	> 100	MIC values [16]: 3.1 µg/mL; MIC values [17]: 1.56 µg/mL; MIC values [18]: 3.1 µg/mL; MIC values [19]: 0.78 µg/mL; MIC values [20]: 6.2 µg/mL; MIC values [21]: 0.78 µg/mL; MIC values [22]: 3.1 µg/mL; MIC values [23]: 6.2 µg/mL; MIC values [24]: 12.5 µg/mL; MIC values [25]: 1.56 µg/mL; MIC values [26]: 3.1 µg/mL; MIC values [27]: 6.2 µg/mL; ED50 ([28]; po): 14.4 mg/kg; ED50 ([28]; sc): 2.7 mg/kg; ED50 (Escherichia coli JUHL [29]; po): 16.6 mg/kg; ED50 (Escherichia coli JUHL [29]; sc): < 2.5 mg/kg
C[C@H](N)C(=O)N[C@@H](C)C(=O)NC1CCN(c2nc3c(-c4ccc(F)cc4F)cc(C(=O)O)c(=O)n3cc2F)C1 (stereo partly drawn) [Example 168, 2-(3-(N-(S)-Alanyl-(S)-alanyl)aminopyrrolidin-1-yl)-9-(2,4-difluorophenyl)-3-fluoro-6H-6-oxopyrido[1,2-a]pyrimidine-7-carboxylic acid hydrochloride]	12.5	3.1	12.5	25	0.78	0.78	12.5	0.05	3.1	50	50	100	> 100	> 100	12.5	3.1	1.56	6.2	> 100	> 100	MIC values [16]: 3.1 µg/mL; MIC values [17]: 3.1 µg/mL; MIC values [18]: 3.1 µg/mL; MIC values [19]: 0.78 µg/mL; MIC values [20]: 6.2 µg/mL; MIC values [21]: 0.78 µg/mL; MIC values [22]: 3.1 µg/mL; MIC values [23]: 6.2 µg/mL; MIC values [24]: 12.5 µg/mL; MIC values [25]: 1.56 µg/mL; MIC values [26]: 3.1 µg/mL; MIC values [27]: 6.2 µg/mL; ED50 ([28]; po): 3 mg/kg; ED50 ([28]; sc): 2.8 mg/kg; ED50 (Escherichia coli JUHL [29]; po): 14.3 mg/kg; ED50 (Escherichia coli JUHL [29]; sc): < 2.5 mg/kg
O=C(O)c1cc(C2CC2)c2nc(N3CCNCC3)c(F)cn2c1=O [Example 164, 9-Cyclopropyl-3-fluoro-2-(piperazin-1-yl)-6H-6-oxo-pyrido[1,2-a]pyrimidine-7-carboxylic acid]	0.39 (≈ 1.17 µM)	0.05 (≈ 0.15 µM)	12.5 (≈ 37.6 µM)	1.56 (≈ 4.69 µM)	0.1 (≈ 0.301 µM)	0.05 (≈ 0.15 µM)	1.56 (≈ 4.69 µM)	0.02 (≈ 0.0602 µM)	0.05 (≈ 0.15 µM)	6.2 (≈ 18.7 µM)	12.5 (≈ 37.6 µM)	12.5 (≈ 37.6 µM)	100 (≈ 301 µM)	100 (≈ 301 µM)	0.39 (≈ 1.17 µM)	0.39 (≈ 1.17 µM)	0.1 (≈ 0.301 µM)	0.39 (≈ 1.17 µM)	3.1 (≈ 9.33 µM)	50 (≈ 150 µM)	MIC values [16]: 1.56 µg/mL (≈ 4.69 µM); MIC values [17]: 1.56 µg/mL (≈ 4.69 µM); MIC values [18]: 1.56 µg/mL (≈ 4.69 µM); MIC values [19]: 0.78 µg/mL (≈ 2.35 µM); MIC values [20]: 1.56 µg/mL (≈ 4.69 µM); MIC values [21]: 1.56 µg/mL (≈ 4.69 µM); MIC values [22]: 1.56 µg/mL (≈ 4.69 µM); MIC values [23]: 12.5 µg/mL (≈ 37.6 µM); MIC values [24]: 12.5 µg/mL (≈ 37.6 µM); MIC values [25]: 12.5 µg/mL (≈ 37.6 µM); MIC values [26]: 12.5 µg/mL (≈ 37.6 µM); MIC values [27]: 12.5 µg/mL (≈ 37.6 µM)
